Laboratory results from ChEMBL document CHEMBL6134930, “Discovery of AB801, a Potent and Selective Inhibitor of AXL Receptor Tyrosine Kinase for Use in Cancer Therapy” (J Med Chem, 2025).

Columns and labels:
[1] = target: T1, Tyrosine-protein kinase receptor UFO (Homo sapiens, UniProt P30530); test: Inhibition of human AXL measured after 150 mins by ATP-competitive HTRF based biochemical assay
T1 sequence (P30530 whole entry): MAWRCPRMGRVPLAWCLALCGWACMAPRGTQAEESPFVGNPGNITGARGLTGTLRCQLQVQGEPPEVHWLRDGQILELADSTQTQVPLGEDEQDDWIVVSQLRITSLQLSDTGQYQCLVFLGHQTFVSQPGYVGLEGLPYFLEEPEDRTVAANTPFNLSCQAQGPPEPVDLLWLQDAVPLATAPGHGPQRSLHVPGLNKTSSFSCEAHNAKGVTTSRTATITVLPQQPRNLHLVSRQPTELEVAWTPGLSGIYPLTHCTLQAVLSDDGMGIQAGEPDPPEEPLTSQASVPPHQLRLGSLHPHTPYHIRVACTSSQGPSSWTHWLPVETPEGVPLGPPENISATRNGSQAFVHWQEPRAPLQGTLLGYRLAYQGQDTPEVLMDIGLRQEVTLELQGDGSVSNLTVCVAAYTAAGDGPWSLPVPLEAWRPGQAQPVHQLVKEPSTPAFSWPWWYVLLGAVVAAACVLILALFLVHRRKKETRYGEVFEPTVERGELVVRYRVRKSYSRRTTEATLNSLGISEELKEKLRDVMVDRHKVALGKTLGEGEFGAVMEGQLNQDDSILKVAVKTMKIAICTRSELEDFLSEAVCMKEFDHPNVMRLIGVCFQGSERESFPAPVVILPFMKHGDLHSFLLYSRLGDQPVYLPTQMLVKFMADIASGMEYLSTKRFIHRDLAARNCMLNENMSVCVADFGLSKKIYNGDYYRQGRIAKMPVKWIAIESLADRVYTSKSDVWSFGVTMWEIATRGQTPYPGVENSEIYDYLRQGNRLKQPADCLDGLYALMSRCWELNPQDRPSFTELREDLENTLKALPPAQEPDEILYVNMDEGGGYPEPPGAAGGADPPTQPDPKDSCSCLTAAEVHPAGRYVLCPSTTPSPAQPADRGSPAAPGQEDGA

[2] = Metabolic stability in rat hepatocytes assessed as intrinsic clearance measured per 10^6 cells; format: ADME, cell-based, Hepatocyte; settings: read-out: CLH
[3] = AUCinf in Sprague-Dawley rat at 2 mg/kg, po measured up to 8 hrs by LC-MS/MS analysis; format: ADME, organism-based; settings: in vivo
[4] = Efflux ratio in human Caco-2 cells; format: ADME, cell-based
[5] = Metabolic stability in human hepatocytes assessed as intrinsic clearance measured per 10^6 cells; format: ADME, cell-based, Hepatocyte; settings: read-out: CLH
[6] = target: T1, Tyrosine-protein kinase receptor UFO; test: Inhibition of autophosphorylation AXL (unknown origin) expressed in HEK293 cells assessed as NanoLuc activity associated with phosphorylated proteins measured after 1 hr incubation by intracellular pAXL-ELISA; format: cell-based
[7] = Clearance in CD-1 mouse at 0.5 mg/kg, iv measured up to 24 hrs by LC-MS/MS analysis; format: ADME, organism-based; settings: in vivo
[8] = Clearance in Sprague-Dawley rat at 0.5 mg/kg, iv measured up to 24 hrs by LC-MS/MS analysis; format: ADME, organism-based; settings: in vivo
[9] = Clearance in Beagle dog at 0.5 mg/kg, iv measured up to 24 hrs by LC-MS/MS analysis; format: ADME, organism-based, Canis lupus familiaris; settings: in vivo
[10] = Clearance in cynomolgus monkey at 0.5 mg/kg, iv measured up to 24 hrs by LC-MS/MS analysis; format: ADME, organism-based, Macaca fascicularis; settings: in vivo
[11] = Apparent permeability of compound from apical to basolateral side in human Caco-2 cells; format: ADME, cell-based; settings: read-out: permeability
hERG (KCNH2) = hERG (KCNH2) (Homo sapiens, UniProt Q12809); test: Inhibition of hERG at 10 uM by high throughput cell based patch clamp assay; format: toxicity
Sequence of hERG (KCNH2) (Q12809 whole entry): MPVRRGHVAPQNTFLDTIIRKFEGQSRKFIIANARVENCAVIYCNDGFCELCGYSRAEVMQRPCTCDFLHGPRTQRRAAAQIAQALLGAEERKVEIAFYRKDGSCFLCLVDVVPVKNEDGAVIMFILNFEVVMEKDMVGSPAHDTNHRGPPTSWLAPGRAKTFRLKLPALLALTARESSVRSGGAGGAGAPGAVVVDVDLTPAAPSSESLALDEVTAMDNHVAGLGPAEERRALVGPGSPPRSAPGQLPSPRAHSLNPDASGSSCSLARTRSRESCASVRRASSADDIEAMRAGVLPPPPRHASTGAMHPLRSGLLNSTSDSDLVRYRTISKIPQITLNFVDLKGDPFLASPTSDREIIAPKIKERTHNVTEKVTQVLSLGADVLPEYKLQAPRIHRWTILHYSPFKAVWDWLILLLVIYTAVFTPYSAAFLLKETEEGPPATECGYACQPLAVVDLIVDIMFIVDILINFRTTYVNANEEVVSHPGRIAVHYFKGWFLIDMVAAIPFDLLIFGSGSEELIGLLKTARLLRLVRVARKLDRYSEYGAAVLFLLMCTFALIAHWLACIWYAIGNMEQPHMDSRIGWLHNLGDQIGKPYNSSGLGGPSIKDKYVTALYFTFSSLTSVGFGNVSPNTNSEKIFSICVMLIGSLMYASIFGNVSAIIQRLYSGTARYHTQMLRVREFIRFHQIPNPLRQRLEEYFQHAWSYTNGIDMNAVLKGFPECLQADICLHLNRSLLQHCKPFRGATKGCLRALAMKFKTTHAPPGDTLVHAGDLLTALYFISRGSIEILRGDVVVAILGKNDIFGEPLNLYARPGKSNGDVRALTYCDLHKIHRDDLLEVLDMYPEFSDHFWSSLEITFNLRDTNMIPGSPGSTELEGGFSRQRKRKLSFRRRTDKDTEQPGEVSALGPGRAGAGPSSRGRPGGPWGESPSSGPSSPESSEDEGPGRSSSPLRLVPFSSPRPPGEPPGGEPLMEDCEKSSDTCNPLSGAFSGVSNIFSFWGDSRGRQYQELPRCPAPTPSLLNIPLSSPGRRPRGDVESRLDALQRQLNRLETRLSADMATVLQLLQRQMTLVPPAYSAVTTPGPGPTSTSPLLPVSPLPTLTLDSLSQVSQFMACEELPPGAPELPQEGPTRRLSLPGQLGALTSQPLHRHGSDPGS

CYP1A2 = target: T2, CYP1A2 (Homo sapiens, UniProt P05177); test: Time dependent inhibition of CYP1A2 (unknown origin) at 30 uM measured after 30 mins relative to control; format: ADME; settings: read-out: TDI
T2 sequence (P05177 whole entry): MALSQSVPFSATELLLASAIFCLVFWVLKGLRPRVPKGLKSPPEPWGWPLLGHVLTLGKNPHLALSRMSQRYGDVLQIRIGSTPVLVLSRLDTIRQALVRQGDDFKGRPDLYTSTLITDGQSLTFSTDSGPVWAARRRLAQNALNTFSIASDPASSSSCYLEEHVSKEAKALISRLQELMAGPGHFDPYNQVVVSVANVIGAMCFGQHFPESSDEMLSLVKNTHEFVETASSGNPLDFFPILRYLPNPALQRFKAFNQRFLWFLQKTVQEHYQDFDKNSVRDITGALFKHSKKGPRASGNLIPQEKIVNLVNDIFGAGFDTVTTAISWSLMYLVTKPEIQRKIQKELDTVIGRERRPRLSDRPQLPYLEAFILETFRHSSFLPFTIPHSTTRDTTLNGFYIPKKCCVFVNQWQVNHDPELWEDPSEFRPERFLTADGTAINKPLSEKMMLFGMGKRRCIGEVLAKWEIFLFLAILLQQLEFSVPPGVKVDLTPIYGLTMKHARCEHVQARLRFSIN

CYP2B6 = target: T3, CYP2B6 (Homo sapiens, UniProt P20813); test: Time dependent inhibition of CYP2B6 (unknown origin) at 30 uM measured after 30 mins relative to control; format: ADME; settings: read-out: TDI
T3 sequence (P20813 whole entry): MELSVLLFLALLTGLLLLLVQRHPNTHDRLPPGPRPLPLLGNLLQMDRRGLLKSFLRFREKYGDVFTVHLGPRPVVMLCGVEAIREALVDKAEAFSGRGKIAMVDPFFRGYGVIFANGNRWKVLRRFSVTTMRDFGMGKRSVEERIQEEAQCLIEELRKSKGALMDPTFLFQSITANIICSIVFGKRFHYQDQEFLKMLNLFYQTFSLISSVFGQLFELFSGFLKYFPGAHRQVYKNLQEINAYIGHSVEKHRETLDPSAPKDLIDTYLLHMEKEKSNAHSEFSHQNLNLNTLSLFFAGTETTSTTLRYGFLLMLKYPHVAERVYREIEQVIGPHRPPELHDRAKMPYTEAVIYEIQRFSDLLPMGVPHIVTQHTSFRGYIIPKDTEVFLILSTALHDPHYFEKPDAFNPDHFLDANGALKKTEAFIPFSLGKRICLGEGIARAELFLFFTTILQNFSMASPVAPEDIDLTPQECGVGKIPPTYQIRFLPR

CYP2C8 = target: T4, CYP2C8 (Homo sapiens, UniProt P10632); test: Time dependent inhibition of CYP2C8 (unknown origin) at 30 uM measured after 30 mins relative to control; format: ADME; settings: read-out: TDI
T4 sequence (P10632 whole entry): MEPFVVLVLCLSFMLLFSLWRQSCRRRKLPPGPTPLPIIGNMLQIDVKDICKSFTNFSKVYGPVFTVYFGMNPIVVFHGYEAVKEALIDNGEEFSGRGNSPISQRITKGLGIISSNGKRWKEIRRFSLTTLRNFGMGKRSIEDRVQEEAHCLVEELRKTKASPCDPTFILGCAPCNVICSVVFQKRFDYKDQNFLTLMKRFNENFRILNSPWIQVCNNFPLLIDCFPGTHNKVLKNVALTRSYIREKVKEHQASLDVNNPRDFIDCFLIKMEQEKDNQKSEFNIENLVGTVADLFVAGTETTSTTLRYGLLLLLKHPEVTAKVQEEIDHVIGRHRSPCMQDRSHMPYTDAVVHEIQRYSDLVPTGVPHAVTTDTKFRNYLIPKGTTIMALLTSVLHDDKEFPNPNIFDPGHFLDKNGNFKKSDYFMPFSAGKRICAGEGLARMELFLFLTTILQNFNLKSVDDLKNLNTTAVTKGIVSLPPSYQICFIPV

CYP2C9 = CYP2C9 (Homo sapiens, UniProt P11712); test: Time dependent inhibition of CYP2C9 (unknown origin) at 30 uM measured after 30 mins relative to control; format: ADME; settings: read-out: TDI
Sequence of CYP2C9 (P11712 whole entry): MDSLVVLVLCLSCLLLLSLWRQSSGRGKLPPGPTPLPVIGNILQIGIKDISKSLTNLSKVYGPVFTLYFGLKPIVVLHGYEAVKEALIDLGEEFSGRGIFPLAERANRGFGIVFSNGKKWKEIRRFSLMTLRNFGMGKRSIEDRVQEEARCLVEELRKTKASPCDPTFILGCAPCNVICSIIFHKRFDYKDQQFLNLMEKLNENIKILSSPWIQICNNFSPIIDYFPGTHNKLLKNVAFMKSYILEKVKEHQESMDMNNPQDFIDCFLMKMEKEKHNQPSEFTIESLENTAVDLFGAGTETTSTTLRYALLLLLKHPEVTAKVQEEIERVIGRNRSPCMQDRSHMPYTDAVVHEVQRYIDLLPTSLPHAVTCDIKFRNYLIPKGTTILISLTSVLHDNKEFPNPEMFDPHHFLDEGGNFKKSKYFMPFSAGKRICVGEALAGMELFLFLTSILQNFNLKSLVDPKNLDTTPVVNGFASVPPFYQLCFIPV

CYP2C19 = CYP2C19 (Homo sapiens, UniProt P33261); test: Time dependent inhibition of CYP2C19 (unknown origin) at 30 uM measured after 30 mins relative to control; format: ADME; settings: read-out: TDI
Sequence of CYP2C19 (P33261 whole entry): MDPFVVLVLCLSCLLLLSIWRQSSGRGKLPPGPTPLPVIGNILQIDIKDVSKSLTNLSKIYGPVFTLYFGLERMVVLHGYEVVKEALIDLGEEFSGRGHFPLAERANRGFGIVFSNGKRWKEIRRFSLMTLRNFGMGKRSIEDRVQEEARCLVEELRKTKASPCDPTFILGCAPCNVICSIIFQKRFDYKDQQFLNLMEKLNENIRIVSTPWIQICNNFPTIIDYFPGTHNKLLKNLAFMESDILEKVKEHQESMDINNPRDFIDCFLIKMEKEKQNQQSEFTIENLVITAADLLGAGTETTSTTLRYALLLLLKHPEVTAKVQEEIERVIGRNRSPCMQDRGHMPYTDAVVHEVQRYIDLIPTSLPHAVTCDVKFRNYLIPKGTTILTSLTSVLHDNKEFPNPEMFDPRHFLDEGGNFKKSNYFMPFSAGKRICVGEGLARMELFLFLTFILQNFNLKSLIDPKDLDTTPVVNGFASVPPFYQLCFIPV

CYP2D6 = CYP2D6 (Homo sapiens, UniProt P10635); test: Time dependent inhibition of CYP2D6 (unknown origin) at 30 uM measured after 30 mins relative to control; format: ADME; settings: read-out: TDI
Sequence of CYP2D6 (P10635 whole entry): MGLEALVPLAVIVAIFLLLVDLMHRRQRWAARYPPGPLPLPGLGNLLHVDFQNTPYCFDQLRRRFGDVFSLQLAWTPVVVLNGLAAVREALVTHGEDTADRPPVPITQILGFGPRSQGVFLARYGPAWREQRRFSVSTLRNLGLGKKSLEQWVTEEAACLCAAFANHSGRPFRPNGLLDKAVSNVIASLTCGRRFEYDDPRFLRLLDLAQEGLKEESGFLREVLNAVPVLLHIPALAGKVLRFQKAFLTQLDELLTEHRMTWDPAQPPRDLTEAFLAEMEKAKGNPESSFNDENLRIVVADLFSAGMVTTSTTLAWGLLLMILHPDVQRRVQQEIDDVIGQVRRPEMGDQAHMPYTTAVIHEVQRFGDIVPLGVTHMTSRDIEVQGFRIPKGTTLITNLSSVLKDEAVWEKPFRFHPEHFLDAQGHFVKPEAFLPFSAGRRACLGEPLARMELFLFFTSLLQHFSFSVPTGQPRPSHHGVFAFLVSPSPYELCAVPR

CYP3A4 [12] = target: T5, CYP3A4 (Homo sapiens, UniProt P08684); test: Time dependent inhibition of CYP3A4 (unknown origin) using midazolam as substrate at 30 uM measured after 30 mins relative to control; format: ADME; settings: probe midazolam, read-out: TDI
T5 sequence (P08684 whole entry): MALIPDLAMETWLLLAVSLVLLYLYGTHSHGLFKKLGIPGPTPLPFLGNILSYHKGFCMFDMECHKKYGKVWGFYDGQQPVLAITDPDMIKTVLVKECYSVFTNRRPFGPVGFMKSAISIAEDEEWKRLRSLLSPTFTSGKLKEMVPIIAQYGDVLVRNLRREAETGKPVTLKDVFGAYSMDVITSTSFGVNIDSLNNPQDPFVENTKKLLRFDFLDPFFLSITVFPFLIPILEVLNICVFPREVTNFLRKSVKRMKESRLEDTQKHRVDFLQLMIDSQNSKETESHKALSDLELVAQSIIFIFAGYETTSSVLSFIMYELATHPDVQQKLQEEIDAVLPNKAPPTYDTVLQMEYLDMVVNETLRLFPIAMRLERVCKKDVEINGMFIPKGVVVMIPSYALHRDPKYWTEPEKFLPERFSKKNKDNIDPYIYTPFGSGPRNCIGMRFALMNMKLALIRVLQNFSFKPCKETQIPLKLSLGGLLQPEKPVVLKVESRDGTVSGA

CYP3A4 [13] = target: T5, CYP3A4; test: Time dependent inhibition of CYP3A4 (unknown origin) using testosterone as substrate at 30 uM measured after 30 mins relative to control; format: ADME; settings: probe testosterone, read-out: TDI

## Cc1cccnc1-c1ccc(-c2c[nH]c3ncc(-c4ccc5c(c4)CC[C@@H](N4C6COCC4C6)CC5)cc23)cc1
[1]
  IC50: 0.72 nM
[2]
  hepatocyte CLint: 5.4 µL/min/1e6 cells
[3]
  AUC(0-inf): 4800 ng·h/mL
[4]
  efflux ratio: 0.9
[5]
  hepatocyte CLint: < 2.7 µL/min/1e6 cells
[6]
  IC50: 67 nM
[7]
  clearance: 3.33 mL/min/kg
[8]
  clearance: 2.67 mL/min/kg
[9]
  clearance: 11.8 mL/min/kg
[10]
  clearance: 4.67 mL/min/kg
[11]
  Papp A→B: 0.58 ×10⁻⁶ cm/s
hERG (KCNH2)
  inhibition at 10 µM: 40%
CYP1A2
  inhibition at 0.5 h, 30 µM: 0%
CYP2B6
  inhibition at 0.5 h, 30 µM: 14%
CYP2C8
  inhibition at 0.5 h, 30 µM: 0%
CYP2C9
  inhibition at 0.5 h, 30 µM: 13%
CYP2C19
  inhibition at 0.5 h, 30 µM: 12%
CYP2D6
  inhibition at 0.5 h, 30 µM: 14%
CYP3A4 [12]
  inhibition at 0.5 h, 30 µM: 58%
CYP3A4 [13]
  inhibition at 0.5 h, 30 µM: 69%
